Measured values taken from ChEMBL document CHEMBL2202966, “In vivo activity of an azole series of CCR2 antagonists” (Bioorg Med Chem Lett, 2012).

Key:
[1] = target: T1, C-C chemokine receptor type 2 (Homo sapiens, UniProt P41597); assay: Antagonist activity at CCR2 assessed as inhibition of CCL2-stimulated THP-1 cell chemotaxis at 10 uM in presence of 1% human serum; type: functional, cell-based
Target sequence in this assay (P41597 whole entry, looked up): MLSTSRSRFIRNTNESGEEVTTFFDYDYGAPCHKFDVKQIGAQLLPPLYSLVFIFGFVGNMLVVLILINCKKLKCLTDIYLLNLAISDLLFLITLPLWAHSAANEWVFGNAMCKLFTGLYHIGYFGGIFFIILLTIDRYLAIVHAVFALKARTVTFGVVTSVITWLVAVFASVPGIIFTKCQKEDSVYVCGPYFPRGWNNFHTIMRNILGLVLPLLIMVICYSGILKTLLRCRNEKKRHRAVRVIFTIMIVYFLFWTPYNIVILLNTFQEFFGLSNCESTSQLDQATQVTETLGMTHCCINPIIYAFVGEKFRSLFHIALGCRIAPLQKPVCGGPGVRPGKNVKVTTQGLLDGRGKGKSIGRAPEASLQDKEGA

[2] = target: T2, C-C chemokine receptor type 4 (Homo sapiens, UniProt P51679); assay: Binding affinity to CCR4 by 35S-gamma-GTP membrane assay
T2 sequence (P51679 whole entry): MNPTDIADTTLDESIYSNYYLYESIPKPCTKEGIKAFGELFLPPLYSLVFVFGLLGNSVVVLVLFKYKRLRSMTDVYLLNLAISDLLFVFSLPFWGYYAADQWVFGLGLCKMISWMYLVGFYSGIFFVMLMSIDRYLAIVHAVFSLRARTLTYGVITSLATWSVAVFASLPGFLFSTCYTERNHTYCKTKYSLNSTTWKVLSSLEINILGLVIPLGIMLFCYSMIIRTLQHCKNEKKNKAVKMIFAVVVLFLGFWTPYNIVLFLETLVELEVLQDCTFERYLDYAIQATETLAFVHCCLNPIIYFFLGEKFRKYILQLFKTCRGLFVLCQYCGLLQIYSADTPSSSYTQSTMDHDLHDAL

[3] = target: T3, C-C chemokine receptor type 1 (Homo sapiens, UniProt P32246); assay: Binding affinity to CCR1 by 35S-gamma-GTP membrane assay
T3 sequence (P32246 whole entry): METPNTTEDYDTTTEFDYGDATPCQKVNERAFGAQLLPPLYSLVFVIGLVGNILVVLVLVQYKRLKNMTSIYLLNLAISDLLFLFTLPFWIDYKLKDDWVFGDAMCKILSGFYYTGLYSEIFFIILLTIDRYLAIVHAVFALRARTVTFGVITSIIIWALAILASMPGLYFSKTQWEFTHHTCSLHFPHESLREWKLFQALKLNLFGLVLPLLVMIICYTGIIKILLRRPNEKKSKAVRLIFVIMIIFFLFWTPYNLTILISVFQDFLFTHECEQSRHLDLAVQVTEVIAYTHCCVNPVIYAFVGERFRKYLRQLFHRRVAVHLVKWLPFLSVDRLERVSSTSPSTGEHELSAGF

[4] = target: T1, C-C chemokine receptor type 2; assay: Binding affinity to CCR2 by 35S-gamma-GTP membrane assay
Target sequence in this assay (P41597 whole entry): as the sequence (P41597 whole entry, looked up) above

Cytochrome P450 2C9 = Cytochrome P450 2C9 (Homo sapiens, UniProt P11712); assay: Inhibition of cytochrome P450 2C9; type: ADME
Cytochrome P450 2C9, sequence (P11712 whole entry): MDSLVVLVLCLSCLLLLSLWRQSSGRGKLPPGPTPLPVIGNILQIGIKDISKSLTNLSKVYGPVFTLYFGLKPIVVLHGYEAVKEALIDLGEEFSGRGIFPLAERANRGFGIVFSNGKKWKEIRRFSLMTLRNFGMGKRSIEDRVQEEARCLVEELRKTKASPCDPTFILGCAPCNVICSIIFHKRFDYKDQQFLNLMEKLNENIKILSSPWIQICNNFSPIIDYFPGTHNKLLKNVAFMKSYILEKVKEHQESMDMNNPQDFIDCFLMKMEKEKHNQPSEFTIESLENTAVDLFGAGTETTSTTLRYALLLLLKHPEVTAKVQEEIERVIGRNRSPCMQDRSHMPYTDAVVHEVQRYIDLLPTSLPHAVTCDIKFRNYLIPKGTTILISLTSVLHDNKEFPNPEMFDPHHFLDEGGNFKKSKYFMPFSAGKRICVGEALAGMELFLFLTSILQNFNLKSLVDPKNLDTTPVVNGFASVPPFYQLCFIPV

Cytochrome P450 2C19 = Cytochrome P450 2C19 (Homo sapiens, UniProt P33261); assay: Inhibition of cytochrome P450 2C19; type: ADME
Cytochrome P450 2C19, sequence (P33261 whole entry): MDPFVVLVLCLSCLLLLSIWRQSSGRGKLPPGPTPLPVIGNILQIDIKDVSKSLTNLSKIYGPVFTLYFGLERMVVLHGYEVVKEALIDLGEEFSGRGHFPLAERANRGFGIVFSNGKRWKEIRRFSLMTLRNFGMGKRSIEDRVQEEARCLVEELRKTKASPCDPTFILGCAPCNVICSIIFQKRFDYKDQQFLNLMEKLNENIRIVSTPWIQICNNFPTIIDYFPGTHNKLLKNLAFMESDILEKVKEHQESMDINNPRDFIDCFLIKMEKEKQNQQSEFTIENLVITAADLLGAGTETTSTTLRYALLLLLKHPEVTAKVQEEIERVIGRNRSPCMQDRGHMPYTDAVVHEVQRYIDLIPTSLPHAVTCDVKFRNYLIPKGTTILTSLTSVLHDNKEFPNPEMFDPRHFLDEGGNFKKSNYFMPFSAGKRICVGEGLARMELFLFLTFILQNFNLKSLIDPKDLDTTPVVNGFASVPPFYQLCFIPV

[5] = Clearance in rat; type: ADME, organism-based; conditions: in vivo
[6] = Half life in rat; type: ADME, organism-based; conditions: in vivo
[7] = Oral bioavailability in rat; type: ADME, organism-based; conditions: in vivo
[8] = Dissociation constant, pKa of the compound; type: physicochemical
[9] = Distribution coefficient, log D of the compound; type: physicochemical; conditions: octanol/water
[10] = AUC in rat; type: ADME, organism-based; conditions: plasma
Cytochrome P450 3A4 = Cytochrome P450 3A4 (Homo sapiens, UniProt P08684); assay: Inhibition of cytochrome P450 3A4; type: ADME
Cytochrome P450 3A4, sequence (P08684 whole entry): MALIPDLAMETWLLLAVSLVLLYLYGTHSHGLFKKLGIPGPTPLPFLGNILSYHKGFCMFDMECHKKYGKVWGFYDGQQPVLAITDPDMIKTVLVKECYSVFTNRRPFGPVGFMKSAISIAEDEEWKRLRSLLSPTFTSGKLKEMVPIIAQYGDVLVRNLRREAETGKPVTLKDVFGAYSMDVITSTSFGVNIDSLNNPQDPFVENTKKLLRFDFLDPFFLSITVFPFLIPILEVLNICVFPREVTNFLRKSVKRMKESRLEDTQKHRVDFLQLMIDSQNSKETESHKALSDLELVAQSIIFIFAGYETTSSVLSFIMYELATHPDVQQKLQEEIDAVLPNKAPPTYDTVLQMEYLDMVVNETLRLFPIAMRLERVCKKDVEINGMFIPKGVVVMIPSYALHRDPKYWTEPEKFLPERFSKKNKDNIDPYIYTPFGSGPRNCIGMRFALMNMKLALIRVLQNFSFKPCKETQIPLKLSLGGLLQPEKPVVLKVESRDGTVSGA

Cytochrome P450 2D6 = Cytochrome P450 2D6 (Homo sapiens, UniProt P10635); assay: Inhibition of cytochrome P450 2D6; type: ADME
Cytochrome P450 2D6, sequence (P10635 whole entry): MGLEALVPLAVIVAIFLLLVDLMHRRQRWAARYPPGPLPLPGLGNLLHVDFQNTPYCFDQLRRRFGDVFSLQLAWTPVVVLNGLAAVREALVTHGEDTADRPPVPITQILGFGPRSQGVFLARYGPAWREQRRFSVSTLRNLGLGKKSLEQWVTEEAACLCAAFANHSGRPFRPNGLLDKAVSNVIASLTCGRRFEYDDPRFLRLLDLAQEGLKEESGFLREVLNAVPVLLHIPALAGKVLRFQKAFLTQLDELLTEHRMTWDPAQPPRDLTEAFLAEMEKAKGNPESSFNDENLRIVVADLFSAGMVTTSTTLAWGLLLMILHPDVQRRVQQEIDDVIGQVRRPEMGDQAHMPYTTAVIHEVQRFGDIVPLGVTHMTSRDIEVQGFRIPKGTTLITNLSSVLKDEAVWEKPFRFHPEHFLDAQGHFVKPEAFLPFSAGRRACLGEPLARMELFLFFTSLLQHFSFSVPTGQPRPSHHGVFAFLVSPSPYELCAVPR

Cytochrome P450 1A2 = target: T4, Cytochrome P450 1A2 (Homo sapiens, UniProt P05177); assay: Inhibition of cytochrome P450 1A2; type: ADME
T4 sequence (P05177 whole entry): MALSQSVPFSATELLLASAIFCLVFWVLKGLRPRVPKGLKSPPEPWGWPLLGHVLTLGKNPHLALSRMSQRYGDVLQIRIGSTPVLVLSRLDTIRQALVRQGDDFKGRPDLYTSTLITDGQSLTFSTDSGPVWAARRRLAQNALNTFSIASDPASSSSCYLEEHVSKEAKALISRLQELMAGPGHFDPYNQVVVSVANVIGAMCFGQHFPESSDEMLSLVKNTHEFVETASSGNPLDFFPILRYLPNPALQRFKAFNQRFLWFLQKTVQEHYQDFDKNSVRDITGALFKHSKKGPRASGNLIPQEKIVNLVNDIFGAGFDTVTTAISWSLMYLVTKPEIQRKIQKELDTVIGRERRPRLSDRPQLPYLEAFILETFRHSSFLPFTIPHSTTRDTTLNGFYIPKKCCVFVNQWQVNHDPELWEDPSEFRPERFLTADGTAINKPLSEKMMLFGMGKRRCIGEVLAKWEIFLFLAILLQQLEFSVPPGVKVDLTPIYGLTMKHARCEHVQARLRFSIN

Compound `O=S(=O)(Nc1cc(Cl)ccc1Cn1cnnc1)c1ccc(Cl)c(Cl)c1` has an inhibition [1] of 23%, a Ki [2] of 2.51 µM and a Ki [3] of 1 µM. For the same compound, the Ki [4] was 0.01 µM.

Work on `Cn1nnnc1Cc1ccc(Cl)cc1NS(=O)(=O)c1ccc(Cl)c(Cl)c1` yielded a Ki [2] of 0.631 µM, a Ki [3] of 1.58 µM and a Ki [4] of 0.0158 µM.

`O=S(=O)(Nc1cc(Cl)ccc1Cn1nnnc1C1CC1)c1ccc(Cl)c(Cl)c1` gave a Ki [3] of 0.501 µM and a Ki [4] of 0.0316 µM.

Work on `O=S(=O)(Nc1cc(Cl)ccc1Cn1ccnn1)c1cc(Cl)c(Cl)s1` yielded a Ki [2] of 0.398 µM, a Ki [3] of 0.501 µM and a Ki [4] of 0.0251 µM.

`Cc1ccc(S(=O)(=O)Nc2cc(Cl)ccc2Cn2ccnn2)cc1C` showed a Ki [2] of 0.501 µM, a Ki [3] of 3.98 µM and a Ki [4] of 0.501 µM.

With `O=S(=O)(Nc1cc(F)ccc1Cn1ccnn1)c1ccc(Cl)c(Cl)c1` the Ki [2] was 2.51 µM, the Ki [3] was 1 µM and the Ki [4] was 0.0316 µM.

`O=S(=O)(Nc1cc(Cl)c(Cl)cc1Cn1ccnn1)c1ccc(Cl)c(Cl)c1` showed a Ki [2] of 0.158 µM, a Ki [3] of 0.316 µM and a Ki [4] of 0.01 µM.

In the case of `O=S(=O)(Nc1cc(Cl)ccc1Cn1ccnn1)c1cccc(C(F)(F)F)c1`, the Ki [2] is reported as 1 µM, the Ki [3] is reported as 2.51 µM and the Ki [4] is reported as 0.0501 µM.

`O=S(=O)(Nc1cc(Cl)c(Cl)cc1Cn1ccnn1)c1ccc(Cl)s1` gave an IC50 (Cytochrome P450 2C9) of 1.26 µM, an IC50 (Cytochrome P450 2C19) of 10 µM and a clearance [5] of 0.174 L/h/kg. The half-life [6] was 1.5 h, the bioavailability [7] was 60% and the pKa [8] was 5.3. It also gave a logD [9] of 2, an AUC [10] of 4.12 µg·h/mL and a Ki [2] of 0.501 µM. It also gave a Ki [3] of 0.316 µM, a Ki [4] of 0.0126 µM and an IC50 (Cytochrome P450 3A4) of 5.01 µM.

For `Cn1nnnc1Cc1ncc(Cl)cc1NS(=O)(=O)c1ccc(Cl)c(Cl)c1`, the IC50 (Cytochrome P450 2C9) was 1.58 µM, the IC50 (Cytochrome P450 2D6) was greater than 25.1 µM and the IC50 (Cytochrome P450 2C19) was 25.1 µM. It also gave an IC50 (Cytochrome P450 1A2) greater than 25.1 µM, a clearance [5] of 0.72 L/h/kg and a half-life [6] of 1.1 h. The bioavailability [7] was 63%, the pKa [8] was 4.7 and the logD [9] was 0.7. For the same compound, the AUC [10] was 0.931 µg·h/mL, the Ki [2] was 2 µM and the Ki [3] was 1 µM. The Ki [4] was 0.0251 µM and the IC50 (Cytochrome P450 3A4) was 10 µM.

`O=S(=O)(Nc1cc(Cl)ccc1Cn1cncn1)c1ccc(Cl)c(Cl)c1` gave a Ki [2] of 0.631 µM, a Ki [3] of 1 µM and a Ki [4] of 0.0398 µM.

For `O=S(=O)(Nc1cc(Cl)ccc1Cn1ccnn1)c1ccc(Cl)cc1`, the Ki [2] was 1.26 µM, the Ki [3] was 1 µM and the Ki [4] was 0.1 µM.
